# According to patent publication US20040132188A1, “Use of non-complexing peptides for the preparation of a composition for transfection of a polynucleotide into a cell and compositions useful in gene therapy” (priority 2001, published 2004):
# Entries after “also recorded” stand apart in the source; their conditions may differ. Square brackets hold non-standard residues; d marks the D form. Ends that are not written are not given here.
# How the values were obtained:
# [1] = Liposome leakage assay, POPC/cholesterol 3:2 liposomes; type: biochemical; conditions: for liposome leakage activity / calcein release: POPC/chol liposomes, pH 7
# Text: FIG. 9: Liposome leakage assay. […] Emitted fluorescence was plotted against peptide concentration. […] C) Comparison of ppTG1, ppTG20 and ppTG21 at pH 7.
# Leakage activity was plotted against peptide concentration.
# HeLa cells = experiment: Transfection in vitro, luciferase plasmid pTG11236; type: cell-based; conditions: for transfection / gene transfer efficiency in vitro: 50 ng pTG11236, increasing amounts of peptide, day 1
# Description: Cells were plated on 24 well plates at a density of 4×10^4 (293-EBNA ) or 7×10^4 (HeLa, Renca) cells/well in DMEM supplemented with 10% FCS. The next day, the medium was replaced by 200 μl serum-free DMEM and plasmid (PTG11056 or pTG11236)/peptide complexes or plasmid/peptide/lipid complexes were prepared in 30 μl 0.9% NaCl or 5% glucose. After 20 min at room temperature these complexes were added to the cells which were then incubated for 2-3 h at 37° C. and 5% CO2 before 1 ml serum-containing DMEM was added. Approximately 20 hours later, cells were lysed by addition of 100 μl 1× Promega lysis buffer, 20 μl of the lysates were analysed for luciferase activity. Proteins were quantified with the bicinchonic acid (BCA) colorimetric method (Smith, Anal. Biochem. 150 (1985), 76-85). […]
# HeLa cells were seeded at a density of 6×10^4 cells on 24 well plates. The next day, cells were incubated with 200 μl serum-free medium, 30 μl of plasmid (50 ng)/peptide/lipid mixtures were added and incubated for 3 h at 37° C. in 5% CO2. 1 ml of DMEM+10% FCS was then added. The next day, the medium was removed and cells were washed with 500 μl of PBS and subsequently treated with 100 μl of Promega lysis buffer. Plates were stored at −80° C. until luciferase activity was measured of 20 μl of the cell lysate. The protein assay was performed using the Pierce BCA kit.
# JTS1 was dissolved to 1 mg/ml in 1 mM NaOH and mixed with DNA diluted in 5% glucose. ppTG1 was then added to this solution. The pcTG90/DOPE ppTG1 mixtures were prepared as described in Example 6. Transfection assays were performed on HeLa cells with 50 ng of plasmid as described in Example 6.
# The series of ppTG1 derivatives listed in Material and Methods were tested for their gene transfer efficiencies in Hela cells. 6×10^4 cells were transfected with 50 ng pTG11236 complexed with increasing amounts of peptide. Luciferase activity was analyzed day 1 after transfection. The results are shown in FIG. 10B (ppTG20, ppTG21), FIG. 10C (ppTG25, ppTG26, ppTG27), FIG. 10D (ppTG28 to ppTG33), FIG. 10E (PEG-ppTG1 and PEG-ppTG20), FIG. 10F (ppTG22 to ppTG24) and FIG. 10G (ppTG20-D).
# [2] = pH 5 versus pH 7; cited from earlier work
# [3] = Liposome leakage assay, POPC/cholesterol 3:2 liposomes; type: biochemical; conditions: POPC/chol liposomes, pH 5
# B6SJL mice, lungs = experiment: In vivo gene transfer after intravenous injection, luciferase activity in the lungs; conditions: pTG11236/peptide complexes intravenously injected; for gene transfer efficiency in the lung: luciferase day 1
# Description: Mice were sacrificed at day 1.
# Lungs were tested for luciferase activity.
# plasmid pTG11236 = experiment: Gel retardation assay (DNA binding activity)
# Description: 3 μg of the plasmid pTG11236 were incubated with increasing amounts of the respective peptide in a final volume of 30 μl with 0.9% NaCl. After 20 min of incubation at room temperature, 6 μl 5× loading buffer (glycerol and bromphenol blue in TAE buffer) were added and 10 μl of these solutions were analyzed on a 1% agarose gel in the presence of ethidium bromide.
# The ability of ppTG1 peptide to complex DNA was analyzed by gel retardation assays. […] After 20 minutes incubation at room temperature, loading buffer was added and 10 μl of the resulting solution were analyzed on a 1% agarose gel.
# ppTG1 derivatives as they are indicated in Materials and Methods, were tested for their capacity to bind plasmid DNA by gel retardation assays.
# RENCA tumors = experiment: In vivo gene transfer after intratumoral injection, luciferase activity in tumors; parameters: species or system B6D2 mice; conditions: 10 μg pTG11236, peptide at pH 8, intratumoral, day 1
# Description: 4×10^5 RENCA cells (murine kidney tumor cells, ATCC) were injected subcutaneously into B6D2 mice to provoke tumor growth. When tumors reached a size of approximatively 30 mm^3, 30 μl of a 5% glucose solution, containing the luciferase expression plasmid DNA pTG11236 in presence or absence of peptide of the present invention were injected into the tumors. Mice were sacrificed at day 1 after injection, tumors were recovered and homogeinized. Luciferase activity was analyzed and expressed as RLU/g tumor.
# The peptide ppTG21 was tested for its capacity to enhance plasmid transfer after intratumoral injection in RENCA tumor-bearing mice. Ten μg of the luciferase expression plasmid pTG11236 were mixed with increasing amounts (i.e. 0.1, 0.6, 3 or 15 micrograms) of ppTG21 at pH 8 (10 mM Tris pH 8). […] In paralell, experiments have been conducted in identical conditions by administering the same plasmid DNA in the presence of increasing amounts (i.e. 0.1%, 0.2%, 0.4% and 0.6 %) of HPC (Hexadecyl-phospho-choline). Plasmid DNA alone, or plasmid DNA in the presence of HPC or ppTG21 were intratumorally injected in similar conditions. Next day, luciferase activities in the tumors was determined (RLU/g tumour).
# [4] = 50 ng pTG11236 complexed with 0.9 μg ppTG1 and 0.1 μg JTS1, final charge ratio 5
Substance,liposome leakage activity / calcein release [1],transfection / gene transfer efficiency in vitro (HeLa cells; HeLa cells),further results
CGLFKALLKLLKSLWKLLLKA,slightly reduced,,
CGLFKALLKLLKSLWKLLLKAC (cysteine pairing not given here),slightly reduced,,
GIFKAIIKIIKSIWKIIIKA,,diminished; also recorded: reduced,
GIFRAIIRIIRSIWRIIIRA,slightly reduced,diminished; also recorded: reduced,
GLFEALLELLESLWELLLEA [reference compound],reduced,,lysing of calcein containing phosphatidylcholine liposomes [2]: more efficiently than at a pH 7; increase of luciferase activity versus best formulation of ppTG1/pcTG90/DOPE (HeLa cells; [4]): about 10 factor; increase of luciferase activity versus pcTG90/DOPE alone (HeLa cells; [4]): about 1000 factor; liposome leakage activity / calcein release [3]: high lysis activity
GLFEALLELLESLWELLLEACCYKAKKKKKKKKWKKKKQS (cysteine pairing not given here) [reference compound],impeded in calcein release,,"gene transfer efficiency in the lung (B6SJL mice, lungs): low; retardation of pTG11236 (plasmid pTG11236; 3 μg (0.6 nmol) peptide, 3 μg pTG11236): > 95%; transfection (HeLa cells; 0.05 μg plasmid DNA): remains low; liposome leakage activity / calcein release [3]: low level release"
GLFHALLHLLHSLWHLLLHA,comparable to ppTG1,strongly reduced,gene expression (luciferase) in tumors after co-injection with plasmid (RENCA tumors): increase of apparent gene expression; also recorded: dramatic improvement of the nucleic acid transfer efficiency; binding to plasmid DNA (plasmid pTG11236; pH 5): binds plasmid DNA; also recorded: can bind DNA; binding to plasmid DNA (plasmid pTG11236; pH 8): not capable to bind to plasmid DNA
GLFKKLLKLLKKLWKLLLKA,comparable to ppTG1 and ppTG20; also recorded: slightly reduced,comparable to ppTG1 and ppTG20; also recorded: did not change,
GLFRALLRLLRSLWRLLLRA [ppTG20],,,"toxicity (B6SJL mice, lungs): less toxic than ppTG1"
GLFRRLLRLLRRLWRLLLRA,comparable to ppTG1 and ppTG20; also recorded: slightly reduced,comparable to ppTG1 and ppTG20; also recorded: did not change,
GVFKAVVKVVKSVWKVVVKA,diminished; also recorded: significantly reduced,diminished,"gene transfer efficiency in the lung (B6SJL mice, lungs): drastically reduced; also recorded: did not lead to detectable reporter gene expression"
GVFRAVVRVVRSVWRVVVRA,diminished; also recorded: significantly reduced,diminished,
Gly-Leu-Phe-Arg-Ala-Leu-Leu-Arg-Leu-Leu-Arg-Ser-Leu-Trp-Arg-Leu-Leu-Leu-Arg-Ala (G[dL][dF][dR][dA][dL][dL][dR][dL][dL][dR][dS][dL][dW][dR][dL][dL][dL][dR][dA]) [ppTG20-D],retained,retained; also recorded: as efficient as ppTG1,"gene transfer efficiency in the lung (B6SJL mice, lungs): even higher than with ppTG1; also recorded: even more efficient than ppTG20"
WEAKLAKALAKALAKHLAKALAKALKACEA [reference compound],,,"liposome leakage activity ([1]; POPC/Chol (3:2) liposomes, pH not separated (compared at pH 5 and pH 7)): no activity; also recorded: could not liberate calcein; gene transfer efficiency in the lung (B6SJL mice, lungs): undetectable; also recorded: inefficient; gene transfer at optimal charge ratio lower than for ppTG1 (HeLa cells; 50 ng pTG11236): 200 fold; gene transfer at optimal charge ratio lower than for ppTG1 (HeLa cells; 500 ng pTG11236): 4 fold; best (optimal) charge ratio for gene transfer (HeLa cells; HeLa cells, 50 ng and 500 ng pTG11236): 7"
